Results from PMC6433232, “Targeting mitochondria in cancer therapy could provide a basis for the selective anti-cancer activity” (PLoS ONE, 2019).
Read-outs that look alike come from different tables or passages of the source.

Assays:
[1] = test system: breast carcinoma HCC1187 cells; assay: cells; format: cell-based; conditions: for CC50: Homo sapiens
Text: For further analyses, we used compounds that have the selective cytotoxicity index either above 20 (non-toxic compounds) or below 1 (toxic compounds) with the aim to identify targets that are responsible for the selective activity of the identified compounds toward cancer cells. To confirm that the effects of the selected compounds are not only specific to MIA PaCa-2 cells, we evaluated their cytotoxic activities on breast carcinoma HCC1187 cells (Table 1). […] For easy comparison, the data with MIA PaCa-2 cells were also included in Table 1. […] We also noticed that, again with a few exceptions, HCC1187 cells are more resistant to the non-toxic compounds in the presence of ATO as compared to MIA PaCa-2 cells. In contrast, HCC1187 cells are more sensitive to all toxic compounds in the presence of ATO as compared to MIA PaCa-2 cells. The high sensitivity of HCC1187 cells to toxic compounds contributed to the increased selective cytotoxicity index.

MIA PaCa-2 cells = assay: Hydrogen peroxide cell-based assay (ROS induction), MIA PaCa-2 cells; conditions: Homo sapiens, hydrogen peroxide level relative to DMSO-treated cells (100%), read-out: ROS increase, % MIA PaCa-2
Description: Cells were incubated for 2 h with either compounds (30 μM) or DMSO in a 96-well plate. After the treatment, 80 μl of cell culture medium was collected and the level of hydrogen peroxide was determined using a Hydrogen Peroxide Cell-Based Assay kit (Cayman).
Cells were incubated with the compounds for 4 h and the level of ROS induction was measured by a hydrogen peroxide cell-based assay kit. Compounds were assayed at a fixed concentration of 30 μM and the measured level of hydrogen peroxide was expressed as percentage in relation to DMSO-treated cells (100%). […] This distinction was more evident for compounds with the highest selective cytotoxicity index. […] We conclude that the selective induction of ROS in cancer cells is required but not sufficient factor for the selective anti-tumor activity.

[2] = test system: Recombinant NADH/NADPH dehydrogenase; assay: NADH/NADPH dehydrogenase-mediated ROS generation assay; format: biochemical; conditions: 30 μM, 4 h at 37°C; for H2O2 generation, NADH/NADPH dehydrogenase -: absence of NADH/NADPH dehydrogenase; for H2O2 generation, NADH/NADPH dehydrogenase +: presence of NADH/NADPH dehydrogenase
Description: Recombinant NADH/NADPH dehydrogenase (0.5 units/well) in a 96-well plate was incubated in 100 μl of the assay buffer (50 mM potassium phosphate buffer, pH 7.5 supplemented with 1 mM EDTA) containing NADPH (3 μM) and superoxide dismutase (SOD) (100 units/well) with and without compound (30 μM) for 4 h at 37°C. At the end of incubation, the level of hydrogen peroxide was measured using a Hydrogen Peroxide Assay kit (Cayman). Control samples were without NADH/NADPH dehydrogenase. The rate of NADH/NADPH dehydrogenase- and compound-mediated ROS production was determined by subtracting values that were obtained in the absence of NADPH dehydrogenase. One unit of NADH/NADPH dehydrogenase was defined as the amount of enzyme required to reduce 1.0 μmole cytochrome C per min/mg in the presence of menadione substrate at 37°C. One unit of SOD was defined as the amount of enzyme required to inhibit reduction of cytochrome C by 50% in a coupled system with xanthine oxidase at pH 7.8 at 25°C in a 3.0 mL reaction volume. Xanthine oxidase concentration should produce an initial ΔA550 of 0.025 ± 0.005 per min.
As the next step, we examined the capability of the selected compounds to generate ROS in the presence or absence of NADH/NADPH dehydrogenase (Table 1). ROS can be generated by NADH/NADPH-dehydrogenase via the one electron reduction of a quinone ring of 1,4-NQs. Unstable half-reduced quinones (semiquinones) transfer electrons to molecular oxygen, thus generating superoxide anion radicals (O2^●-), which are converted by SOD to hydrogen peroxide. We believe that our assay measuring compound’s ability to generate H2O2 in the presence or absence of NADH/NADPH dehydrogenase more closely resembles conditions inside the cell than the assay designed to measure compound’s redox potential values. […] To determine the ability of compounds to induce ROS, compounds were incubated for 4 h at 37°C with and without NADH/NADPH-dehydrogenase in the presence of NADPH as an electron donor and SOD to convert generated superoxide radicals into hydrogen peroxide. At the end of incubation, 10-acetyl-3,7-dihydroxyphenoxazine (ADHP) and horseradish peroxidase (HRP) were added to the reaction and the level of HRP-mediated formation of the fluorogenic product, resorufin, was measured on a plate reader. ROS production was detected in reactions with either the toxic or non-toxic compounds.

human GAPDH enzyme = biological target: T1, human GAPDH enzyme (Homo sapiens, UniProt P04406); assay: GAPDH activity assay in MIA PaCa-2 cells; format: cell-based; conditions: 2 h; for remaining activity at 30 µM: read-out: GAPDH, enzyme residual activity as compared to DMSO-treated sample
T1 construct: endogenous in cells; host or cells: MIA PaCa-2 cells
T1 sequence (P04406 whole entry): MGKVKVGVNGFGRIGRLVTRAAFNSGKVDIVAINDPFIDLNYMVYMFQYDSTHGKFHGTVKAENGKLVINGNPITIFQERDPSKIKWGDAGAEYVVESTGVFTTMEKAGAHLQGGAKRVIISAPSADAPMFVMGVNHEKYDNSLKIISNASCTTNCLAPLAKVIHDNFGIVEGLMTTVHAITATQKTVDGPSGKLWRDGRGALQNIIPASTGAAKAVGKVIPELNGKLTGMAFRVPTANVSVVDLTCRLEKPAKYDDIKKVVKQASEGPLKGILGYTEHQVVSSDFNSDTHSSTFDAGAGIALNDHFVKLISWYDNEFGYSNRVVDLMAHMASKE
Description: Cells were incubated for 2 h with either compounds (30 μM) or DMSO in a 6-well plate. Next, cells were collected in 200 μl of PBS and disrupted by sonication. Insoluble material was removed by centrifugation. The level of GAPDH activity was determined by GAPDH activity assay kit (BioVision).
As a final step, we evaluated the inhibitory activity of the selected compounds against human GAPDH enzyme in a cell-based assay using MIA PaCa-2 cells (Table 1). Cells were pre-incubated with compounds for 2 h at 37°C followed by cell lysis using sonication and GAPDH activity assay. The ability of compounds to inhibit GAPDH was expressed as percentage of GAPDH residual activity with respect to DMSO-treated cells. […] Similar to the GSR activity assay, only two of the most toxic compounds 31 and 32, were able to inhibit GAPDH by 95 and 97%, respectively.

[3] = test system: human primary hepatocytes; assay: cells; conditions: Hepatocyte, read-out: EC50, μM Hepatocytes
Description: (§1) We selected hepatocytes as normal cells because hepatocytes are mediate toxicity to multiple drugs and are used as a standard to assess toxicity of drugs in vitro [28]. […] For comparison with the standard of care, doxorubicin was also included in this analysis.

in vitro = conditions: human
Description: as §1

[4] = test system: Complex I (bovine heart mitochondria); assay: MitoCheck Complex I activity assay; conditions: 30 μM; for Mito Check I, enzyme residual activity as compared to DMSO-treated sample: bovine heart mitochondria, NADH oxidation
Description: MitoCheck Complex I activity was determined as described in the manual of the manufacturer’s manual (Cayman). Briefly, compounds (30 μM) or DMSO were mixed with the Complex I activity assay buffer that contained bovine heart mitochondria reagent, NADH, and ubiquinone in the presence of KCN to inhibit complex IV activity. The level of Complex I activity was monitored in a kinetic assay of NADH oxidation by measuring a decrease in absorbance at 340 nm. The residual Complex I activity was calculated by dividing the rate of compound wells by the rate of DMSO wells for the linear portion of the curve.
To test possible effects of compounds on ETC, we analyzed the Complex I-mediated NADH oxidation using a MitoCheck Complex I Activity Assay Kit. The level of NADH oxidation was measured by a decrease in absorbance at 340 nm and expressed as percentage of residual activity in relation to DMSO-treated mitochondria (Table 1). […] Complex I activity was estimated by the rate of NADH oxidation which was also affected by NADH/NADPH-dehydrogenase-mediated redox cycling.

[5] = HCC1187, compound alone, unit not given in Table 1, read-out: LC50 HCC1187

With `CCCCC(=O)NC1=C(Cl)C(=O)c2ccccc2C1=O` [compound 32] the CC50 [1, 5] was 0.3 µM, the activity at 30 µM (MIA PaCa-2 cells) was 506% and the “H2O2 generation, NADH/NADPH dehydrogenase -” value [2] was 6.3 µM. The “H2O2 generation, NADH/NADPH dehydrogenase +” value [2] was 10.6 µM, the “inhibition of GAPDH” value (human GAPDH enzyme; 30 μM) was “almost completely inhibited GAPDH” and the inhibition at 30 µM (human GAPDH enzyme) was 97%. The remaining activity at 30 µM (human GAPDH enzyme) was 3%, the EC50 [3] was 2.2 µM and the CC50 (in vitro; primary hepatocytes) was 2.2 µM. For the same compound, the “stimulation of Complex I activity” value [4] was “more than 30%” and the “Mito Check I, enzyme residual activity as compared to DMSO-treated sample” value [4] was 135%.

For `CC(C)(C)NC1=C(Cl)C(=O)c2ccccc2C1=O` [compound 13], the CC50 [1, 5] was 28.7 µM, the activity at 30 µM (MIA PaCa-2 cells) was 248% and the “H2O2 generation, NADH/NADPH dehydrogenase -” value [2] was 2.7 µM. The “H2O2 generation, NADH/NADPH dehydrogenase +” value [2] was 4.3 µM, the remaining activity at 30 µM (human GAPDH enzyme) was 100% and the EC50 [3] was 29.9 µM. The CC50 (in vitro; primary hepatocytes) was 29.9 µM and the “Mito Check I, enzyme residual activity as compared to DMSO-treated sample” value [4] was 84%.

For `CC1CN1C1=C(Cl)C(=O)c2ccccc2C1=O` (stereo not drawn) [compound 16], the CC50 ([1]; HCC1187, read-out: LC50 HCC1187) was 3.6 µM, the “Selective cytotoxicity index HCC 1187 ATO” value ([1]; human) was 128.6 and the activity at 30 µM (MIA PaCa-2 cells) was 637%. For the same compound, the “H2O2 generation, NADH/NADPH dehydrogenase -” value [2] was 2.1 µM, the “H2O2 generation, NADH/NADPH dehydrogenase +” value [2] was 3.8 µM and the remaining activity at 30 µM (human GAPDH enzyme) was 100%. For the same compound, the EC50 [3] was 78 µM, the CC50 (in vitro) was 78 µM and the “Mito Check I, enzyme residual activity as compared to DMSO-treated sample” value [4] was 58%.

With `O=C1C(Cl)=C(Nc2nccs2)C(=O)c2ccccc21` [compound 38] the CC50 [1, 5] was 20.3 µM, the activity at 30 µM (MIA PaCa-2 cells) was 100% and the “H2O2 generation, NADH/NADPH dehydrogenase -” value [2] was 1.9 µM. The “H2O2 generation, NADH/NADPH dehydrogenase +” value [2] was 2.7 µM, the remaining activity at 30 µM (human GAPDH enzyme) was 100% and the EC50 [3] was 26 µM. For the same compound, the CC50 (in vitro; primary hepatocytes) was 26 µM and the “Mito Check I, enzyme residual activity as compared to DMSO-treated sample” value [4] was 105%.
